Here are results for one molecule from patent US20040116456A1, “Remedies for psychoneurosis” (priority 2001, published 2004).

Where a name gives a salt, the structure may show the parent alone.

This experiment relates to restless legs syndrome. In words: Oral preparation given to patients diagnosed with restless legs syndrome. To be noted: 10 μg oral soft capsule; for time until abnormal sensation disappeared after taking the preparation: RLS patient. Type of experiment: in vivo, human. As to the method:
A solution containing 10 μg of (−)-17-(cyclopropylmethyl)-3,14β-dihydroxy-4,5α-epoxy-6β[N-methyl-trans-3-(3-furyl)acrylamide]morphinan hydrochloric acid salt 1 [drawing 10]
was encapsulated into a soft capsule made of gelatin to obtain an oral preparation. This oral preparation was administered to two patients who had been diagnosed as restless legs syndrome. Both of the two patients complained abnormal itchy sensation on the lower limbs and sleep is sometimes disturbed. By taking the oral preparation, the abnormal sensation disappeared 2 hours after taking the preparation in one patient, and 4 hours after taking the preparation in another patient.

`CN(C(=O)/C=C/c1ccoc1)[C@@H]1CC[C@@]2(O)C3Cc4ccc(O)c5c4[C@@]2(CCN3CC2CC2)[C@H]1O5` (single isomer, unassigned; (-)) [Compound 1, (−)-17-(cyclopropylmethyl)-3,14β-dihydroxy-4,5α-epoxy-6β[N-methyl-trans-3-(3-furyl)acrylamide]morphinan hydrochloric acid salt]: the “time until abnormal sensation disappeared after taking the preparation” value (another patient) came to 4 h and the “time until abnormal sensation disappeared after taking the preparation” value (one patient) is 2 h. Moreover, the “duration of the effect for eliminating the abnormal sensation” value (both of the two RLS patients) is at least 24 h. Also, the “sleep disturbance in the night” value (both of the two RLS patients) was “sleep disturbance did not occur”. Moreover, the “therapeutic effect against restless legs syndrome” value (two RLS patients) is reported as “clearly had therapeutic effect against restless legs syndrome”.
